Test results from patent publication US20240174744A1, “METHODS OF TREATMENT USING PROTEIN BINDERS TO IRHOM2 EPITOPES” (SCIRHOM GMBH, priority 2021, published 2024).

Test system: LPS-induced release of TNFα from PBMCs from patients suffering from rheumatoid arthritis
Experiment: ELISA-based TNFα release assay, PBMCs from RA-patients
Assay type: cell-based
Conditions: Homo sapiens, PBMC; chimeric antibodies (CHO) 1 μg/ml; Batimastat 10 μM; LPS 1 ng/ml, 1.5 hours
Procedure: In contrast to Example 32, where the inhibitory effects of the antibodies of the present disclosure on LPS-induced release of endogenous TNFα from primary human material obtained from healthy donors using peripheral blood mononuclear cells (PBMCs) were tested, this analysis was conducted to analyze the inhibitory effects of the antibodies of the present disclosure on LPS-induced release of endogenous TNFα from primary human material obtained from patients suffering from rheumatoid arthritis (RA-patients).
In brief, on day 1, Nunc black MaxiSorp® 96-well plates (Thermo Fisher Scientific, USA) were coated overnight with 100 μl per well of mouse anti-human TNFα capture antibody (provided as part of the DuoSet ELISA kit) at 4 μg/ml TBS at 4° C. On day 2, the capture antibody solution was removed and MaxiSorp® plates were blocked with 300 μl per well of TBS, 1% BSA at room temperature for 3 hours. […] Using an infinite M1000 (Tecan Group, Switzerland) microplate reader, the fluorescence of each well was collected at an excitation wavelength of 435 nm and an emission wavelength of 555 nm.

CNC(=O)[C@H](Cc1ccccc1)NC(=O)[C@H](CC(C)C)[C@H](CSc1cccs1)C(=O)NO [Batimastat]
inhibition at 10 µM: 99.9%
